From patent US9155784B2, “Anti-TNF-α therapy for the mucopolysaccharidoses and other lysosomal disorders” (Icahn School of Medicine at Mount Sinai, priority 2011, dated 2015)

What was measured:
Type in all cases: in vivo, rat
TNF-α = TNF-α immunostaining of articular cartilage, MPS VI rats; conditions: MPS VI rats treated 8 months, vs untreated
Method: Femora from 37-week-old normal, untreated MPS VI and treated MPS VI rats were fixed, embedded, sectioned, and stained with toluidine blue and H & E. Immunohistochemical studies were performed as well. For immunohistochemistry, sections were fixed with 4% paraformaldehyde/PBS, permeabilized with 0.5% Triton-X-100, blocked, and incubated overnight at 4° C. with primary rabbit polyclonal anti-mouse collagen type IIA1 (rabbit polyclonal […], Santa Cruz Biotechnology) and TNF-α antibody (goat polyclonal sc-1348, Santa Cruz Biotechnology). After several rinses with PBS, visualization was accomplished using a fluorescent secondary antibody, donkey anti-goat IgG-Cy-3 (711-165-152, Jackson Laboratory). Nuclei were stained with 1 mg/ml bis-benzimide Hoechst dye (Sigma-Aldrich) for 10 min, rinsed, and sections were mounted with an anti-bleaching mounting media. Slides were visualized and photographed with a confocal laser-scanning microscope (Carl Zeiss 510 Meta).

MPS VI rats [1] = experiment: Trachea measurements and gross morphology, MPS VI rats
Method: (§1) Limb and trachea measurements were taken at the end of the study (37 weeks of age). The length of each femur was measured from the microCT images using the Microview software. The greater trochanter was used as the proximal margin of the femur, whereas the extent of the distal condyles was considered the distal margin. Thus, the length of each femur was computed roughly along the vertical axis of the bone. For validation, the physical femora and tibia lengths, as well as the width of the tracheas, was measured with a digital caliper. The mean of the two treatment groups (ERT and combined ERT/CNTO1081) were compared using standard student t test analysis.

TNF-α and RANKL = experiment: Serum immunoassays of TNF-α and RANKL in treated MPS VI rats; conditions: MPS VI rats treated 8 months i.v., end of study (37 weeks), vs untreated MPS VI
Method: Naglazyme® (recombinant human N-acetylgalactosamine-4-sulfatase) was obtained from the BioMarin Pharmaceutical Inc., and CNTO1081 was from Centocor Ortho Biotech Inc. Twenty one-day-old (pre-symptomatic) MPS VI rats were divided into two groups (n=8/group), and subjected to either ERT or combined ERT/anti-TNF-α therapy. Animals receiving ERT alone were injected i.v. (tail vein) weekly with 1 mg/kg of Naglazyme®. Those receiving combined therapy also were injected i.v. with 3 mg/kg of CNTO10181 twice per week (every third day). Treatment was carried out for a total of 32 weeks. Serum was collected every 2 weeks for TNF-α and RANKL analysis (see infra). For each group, the treated animals were sacrificed 2 weeks after the last injection (37 weeks of age). Age-matched normal and untreated MPS VI rats were used as controls throughout the study.
Serum TNF-α and RANKL in age-matched normal, untreated and treated MPS VI rats were assessed by immunoassays using rat ultrasensitive Biosource Elisa kits (Invitrogen and ALPCO Diagnostics) according to the manufacturers' protocols. All assays were performed in triplicate.
Twenty one-day-old MPS VI rats were treated by either ERT (1 mg/kg once per week), or by a combined protocol of ERT and anti-TNF-α therapy (3 mg/kg, twice per week). Both were administered intravenously (tail vein). […]

MPS VI rats [2] = experiment: Accelerating rotarod (locomotor function), MPS VI rats, ERT and combined treatment; conditions: 10 RPM, maximum time 180 seconds; untreated MPS VI mean 70 seconds
Description: Age-matched 37-week-old normal and untreated MPS VI and treated MPS VI rats were placed on an accelerating Rotarod series 8 (IITC Life Science) for evaluation as described previously (Cotugno et al., “Different Serum Enzyme Levels are Required to Rescue the Various Systemic Features of the Mucopolysaccharidoses,” Hum. Gene Ther. 21:555-69 (2010), which is hereby incorporated by reference in its entirety). Animals were primed on the rod for two consecutive days prior to the actual recording. The rotarod was set at increasing speeds from 10 to 30 rpm over 3 minutes, and an average of the latency to fall off from the rod was recorded. Results were analyzed by one-way analysis of variance (ANOVA) with the variable group.

MPS VI rats [3] = experiment: Gait (motility) analysis from paw prints, MPS VI rats
Method: The fore and hind paws of treated and control animals were stained with two different colors using non-toxic dye. The rats were trained to walk through a tunnel for two consecutive days, leaving their paw prints on blotting paper. On the third day several parameters were measured; distance between the left and right front paws in the longitudinal direction, the angle that was formed, and the distance between the front and hind right paws. For statistical analysis, group differences were assessed using multivariate analyses of variance (MANOVAs), followed by post hoc Bonferroni adjustments for all time points tested.

MPS VI rats [4] = experiment: Femora and tibia length by microCT / caliper, MPS VI rats; conditions: 37 weeks of age, vs untreated MPS VI
Method: Three-dimensional images of the 37-week-old femora from age-matched normal, untreated and treated MPS VI rats were obtained using the eXplore Locus SP PreClinical Specimen microCT system (GE Healthcare; London, Ontario, Canada). Scans were performed at a voxel size of 14.4 μm. The scan protocol consisted of 3600 image acquisitions over a five hour scan (acquisition parameters: 80 kVp, 80 uA, 3 second exposure time [˜690], 0.010″ aluminum beam filter). A calibration phantom containing air, water, and hydroxyapatite (SB3: Gamex RMI, Middleton, Wis., USA) was included in all scans to adjust for the variability in X-ray attenuation inherent to independent scan sessions.
as §1

## recombinant human N-acetylgalactosamine-4-sulfatase [ERT]
TNF-α
  TNF-α immunostaining in the articular cartilage: modestly reduced
MPS VI rats [1]; 37 weeks of age
  tracheal abnormalities (thickened, collapsed tracheas), gross inspection: not altered
MPS VI rats [1]; 37 weeks, untreated 2.9±0.6, normal 7.5±0.8
  trachea cross-sectional area: 3.6±0.5 mm^2
TNF-α and RANKL
  serum RANKL level: significantly reduced
  serum TNF-α level: significantly reduced
MPS VI rats [2]
  time on the rotating bar: 180 s
MPS VI rats [3]; untreated MPS VI 2.8 cm
  distance for the front paw per step: 4.2 cm
MPS VI rats [3]; untreated MPS VI 4.9 cm
  distance the animals moved their rear paws: not changed
MPS VI rats [3]; untreated MPS VI 60°
  angle of the hind paw movement: 45 °
MPS VI rats [4]
  increase in femora length: No improvements were observed
  increase in tibia length: No improvement was observed
